This is an account of results in patent US20200323793A1, “COMBINATION THERAPY COMPRISING A POLYUNSATURATED KETONE AND A CALCINEURIN INHIBITOR” (Avexxin AS, priority 2016, published 2020).

For experiment [1], the system named is skin keratinocyte cell line HaCaT. As to the kind of experiment: Resazurin assay, HaCaT cell viability, Example 2 (48 hours of treatment). In kind it is cell-based, human. As to conditions: each alone, dose response over 48 hours. The protocol: (§1) The spontaneously immortalized, nontumorigenic skin keratinocyte cell line HaCaT was maintained in DMEM supplemented with 5% (v/v) FBS, 0.3 mg/ml glutamine and 0.1 mg/ml gentamicin at 37° C. with 5% CO2 in a humidified atmosphere. Subculture using trypsin-EDTA was performed every 3-4 days with split ratio of 1:3-1:4 to ensure actively proliferating cells.
Cells were seeded in 96 well plates in fully supplemented medium at a density of 3000 cells per well. Following 72 hour of cultivation, the cells were starved of serum in 0.25% FBS/DMEM overnight to halt proliferation, synchronize the cells and to increase cell sensitivity to treatment. Next day, the cells were treated with Compound A1 and calcineurin inhibitor Pimecrolimus for 48 hours. Resazurin was added according to the manufacturer's instruction (RnD Systems, UK) and left to incubate for […] in incubator at 37° C. with 5% CO2 in a humidified atmosphere before fluorescence was read at 544 nm excitation and 590 nm emission wavelength. The cells were observed under the microscope to evaluate possible morphology changes and signs of stress before addition of resazurin. The experiments were performed in series of 8 wells per treatment.
Background: The colour change of resazurin is a common sign of viable cells or microbes.

Experiment [2] has the same test system. The experiment is described as follows: Resazurin assay, HaCaT proliferation and viability, Example 1 (24 hours of treatment). The experiment is classed as cell-based. As to conditions: Homo sapiens, 25 μM alone, read-out: reduction of proliferation and viability of HaCaT cells. The protocol:
as §1
Cells were seeded in 96 well plates in fully supplemented medium at a density of 2500 cells per well. Following 72 hours of cultivation, the cells were starved of serum in 0.25% FBS/DMEM overnight to halt proliferation, synchronize and to increase cell sensitivity to treatment. On day 4, the cells were treated with cPLA2α inhibitor Compound A1 and immunomodulator Pimecrolimus (Karebay Biochem # Ki0907) and left to incubate for […] in incubator at 37° C. with 5% CO2 in a humidified atmosphere before fluorescence was read at 544 nm excitation and 590 nm emission wavelength. The cells were observed under the microscope to evaluate possible morphology changes and signs of stress before addition of resazurin. The experiments were performed in series of 8 wells per treatment and repeated 2-3 times.

As for `CC[C@@H]1/C=C(\C)C[C@H](C)C[C@H](OC)[C@H]2O[C@@](O)(C(=O)C(=O)N3CCCC[C@H]3C(=O)O[C@H](/C(C)=C/[C@@H]3CC[C@H](Cl)[C@H](OC)C3)[C@H](C)[C@@H](O)CC1=O)[C@H](C)C[C@@H]2OC` [Pimecrolimus], in experiment [1], the “activity against viability of the cells (dose response)” value is recorded as “active inhibitors”. For the same compound, the cytotoxicity at 25 µM in experiment [2] is around 15%.
